From patent publication US20240400564A1 (Syndax Pharmaceuticals, Inc, priority 2021, published 2024) come the findings set out here.

SMILES strings stand for the structures.

Data set [1] concerns the target hERG (Homo sapiens, UniProt Q12809). Kind of data set: Patch clamp assay (hERG tail currents, whole-cell).
The subject of data set [2] is MLLr leukemia cell line MV4-11. Kind of data set: Cell proliferation assay MV4;11 (CellTiter-Glo, 72 hours). The class given is cell-based. The settings on record: Homo sapiens; MV4-11 cells, 72 hours, CellTiter-Glo; read-out: MV4; 11 IC50. The procedure:
Compounds were evaluated for its capacity to inhibit the proliferation of the MLLr leukemia cell line MV4-11 that harbors an MLL1-AF4 fusion protein. MV4-11 cells were cultured for 72 hours with limiting dilutions of compounds and viability was measured using CellTiter-Glo.
Compounds were dissolved to obtain as 10 mM solution in DMSO. The stock was diluted 1:5 to the top concentration of 2 mM in 100% DMSO. For IC50 determination, serial 1:3.16 dilutions were prepared in 100% DMSO by diluting 20 μL into 43.5 μL of DMSO for 8 concentrations. Each prepared DMSO solution were further diluted 1:500 in the cell culture media to obtain the 2× dosing solutions. The final concentrations of tested compounds in the cell culture media ranged from 0.632 nM to 2000 nM.
MV4-11 cells were cultured in IMDM with 10% FBS and 1× Penicillin-Streptomycin at 5% CO2 and 37° C. A cell suspension was prepared containing 15,000 cells/ml in the culture medium and 100 μL of this suspension was added per well to a 96-well cell culture plate. Then, 100 μL of 2× dosing media containing test compounds were added bringing the total volume to 200 μL. These cells were cultured for 72 hours at 37° C. and 5% CO2 in a humidified incubator.
After 72 hours, the cultured cells were mixed and 100 μL was transferred to a 96-well black plate. Cell Titer Glo (100 μl) was then added to this plate. The plate was mixed with shaking for 15 mins at RT, the luminescence was then measured using Tecan Spark 20M spectrophotometer. Cell Viability (%) was determined by RLU of test/RLU average vehicle control*100 and % max inhibition was determined by 100−(% cell viability remaining at the top concentration of compound).
(In general: ATP-based viability assays read luminescence as a measure of living cells.)

Sequence of hERG (Q12809 whole entry): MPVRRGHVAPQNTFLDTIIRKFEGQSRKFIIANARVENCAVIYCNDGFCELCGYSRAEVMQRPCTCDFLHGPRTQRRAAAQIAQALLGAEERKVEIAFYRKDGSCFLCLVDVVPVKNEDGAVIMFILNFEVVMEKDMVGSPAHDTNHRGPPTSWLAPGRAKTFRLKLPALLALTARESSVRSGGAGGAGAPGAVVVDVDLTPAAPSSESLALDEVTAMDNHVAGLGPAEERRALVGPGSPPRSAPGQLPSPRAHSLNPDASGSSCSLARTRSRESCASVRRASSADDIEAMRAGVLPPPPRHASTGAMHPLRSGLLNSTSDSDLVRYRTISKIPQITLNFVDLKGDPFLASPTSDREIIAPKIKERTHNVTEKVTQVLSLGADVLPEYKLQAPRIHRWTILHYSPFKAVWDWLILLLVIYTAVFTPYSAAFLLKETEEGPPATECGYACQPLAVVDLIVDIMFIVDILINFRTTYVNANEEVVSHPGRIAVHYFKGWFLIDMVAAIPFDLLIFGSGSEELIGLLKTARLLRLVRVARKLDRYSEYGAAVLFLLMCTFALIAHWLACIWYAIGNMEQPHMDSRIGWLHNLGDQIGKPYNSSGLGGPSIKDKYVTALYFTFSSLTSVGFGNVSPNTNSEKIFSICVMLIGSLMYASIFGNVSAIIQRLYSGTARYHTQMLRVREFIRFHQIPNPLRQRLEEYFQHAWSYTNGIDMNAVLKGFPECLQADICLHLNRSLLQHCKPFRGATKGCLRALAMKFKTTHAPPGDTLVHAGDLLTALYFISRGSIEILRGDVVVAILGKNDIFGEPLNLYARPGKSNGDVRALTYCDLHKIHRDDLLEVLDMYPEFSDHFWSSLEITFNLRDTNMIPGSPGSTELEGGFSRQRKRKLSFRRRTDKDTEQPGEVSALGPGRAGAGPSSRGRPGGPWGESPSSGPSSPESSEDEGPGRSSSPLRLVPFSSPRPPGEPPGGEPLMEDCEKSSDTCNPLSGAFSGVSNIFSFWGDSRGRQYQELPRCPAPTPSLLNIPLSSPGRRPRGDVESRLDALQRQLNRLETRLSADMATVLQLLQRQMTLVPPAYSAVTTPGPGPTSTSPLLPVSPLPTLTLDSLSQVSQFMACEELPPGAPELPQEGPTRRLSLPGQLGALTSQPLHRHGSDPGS

As to `CCN(C(=O)c1cc(F)ccc1Oc1cncnc1N1CC2(CCN(C[C@@H]3CC[C@@H](NS(=O)(=O)c4cnn(C)c4)CO3)CC2)C1)C(C)C` [Example 68, N-Ethyl-5-fluoro-N-isopropyl-2-((4-(7-(((2S,5R)-5-((1-methyl-1H-pyrazole)-4-sulfonamido)tetrahydro-2H-pyran-2-yl)methyl)-2,7-diazaspiro[3.5]nonan-2-yl)pyrimidin-5-yl)oxy)benzamide], the “hERG % Remaining” value in data set [1] (10 μM compound) and in data set [1] (30 μM compound) was “+++ (≥66%)” in each case. Besides, the IC50 in data set [2] was less than 100 nM. As to `CCN(C(=O)c1cc(F)ccc1Oc1cncnc1N1CC2(CCN(C[C@@H]3CC[C@@H](NS(=O)(=O)c4csc(C)n4)CO3)CC2)C1)C(C)C` [Example 71, N-Ethyl-5-fluoro-N-isopropyl-2-((4-(7-(((2S,5R)-5-((2-methylthiazole)-4-sulfonamido)tetrahydro-2H-pyran-2-yl)methyl)-2,7-diazaspiro[3.5]nonan-2-yl)pyrimidin-5-yl)oxy)benzamide], the “hERG % Remaining” value in data set [1] (10 μM compound) is “+++ (≥66%)”; in data set [1] (30 μM compound), “++ (233% and ≤66%)”. For the same molecule, the IC50 in data set [2] was less than 100 nM. Turning to `CCN(C(=O)c1cc(F)ccc1Oc1cncnc1N1CC2(CCN(C[C@@H]3CC[C@@H](NS(=O)(=O)c4cnc(C)o4)CO3)CC2)C1)C(C)C` [Example 72, N-Ethyl-5-fluoro-N-isopropyl-2-((4-(7-(((2S,5R)-5-((2-methyloxazole)-5-sulfonamido)tetrahydro-2H-pyran-2-yl)methyl)-2,7-diazaspiro[3.5]nonan-2-yl)pyrimidin-5-yl)oxy)benzamide], the “hERG % Remaining” value in data set [1] (10 μM compound) was “++ (233% and ≤66%)”; in data set [1] (30 μM compound), “+ (<33%)”. Also, the IC50 in data set [2] was less than 100 nM. Regarding `CCN(C(=O)c1cc(F)ccc1Oc1cncnc1N1CC2(CCN(C[C@@H]3CC[C@@H](NS(=O)(=O)c4c[nH]c(=O)cc4C)CO3)CC2)C1)C(C)C` [Example 75, N-Ethyl-5-fluoro-N-isopropyl-2-((4-(7-(((2S,5R)-5-((4-methyl-6-oxo-1,6-dihydropyridine)-3-sulfonamido)tetrahydro-2H-pyran-2-yl)methyl)-2,7-diazaspiro[3.5]nonan-2-yl)pyrimidin-5-yl)oxy)benzamide], the “hERG % Remaining” value in data set [1] (30 μM compound) is “+++ (≥66%)”. Further, the IC50 in data set [2] is less than 100 nM. On to `Cc1ncc(S(=O)(=O)N[C@@H]2CC[C@@H](CN3CCC4(CC3)CN(c3ncncc3Oc3ccc(F)cc3C(=O)N(C(C)C)C(C)C)C4)OC2)o1` [Example 80, 5-Fluoro-N,N-diisopropyl-2-((4-(7-(((2S,5R)-5-((2-methyloxazole)-5-sulfonamido)tetrahydro-2H-pyran-2-yl)methyl)-2,7-diazaspiro[3.5]nonan-2-yl)pyrimidin-5-yl)oxy)benzamide], for which the “hERG % Remaining” value in data set [1] (10 μM compound) is “++ (233% and ≤66%)”; in data set [1] (30 μM compound) it was “+ (<33%)”. For the same molecule, the IC50 in data set [2] was less than 100 nM. As to `Cc1nc(S(=O)(=O)N[C@@H]2CC[C@@H](CN3CCC4(CC3)CN(c3ncncc3Oc3ccc(F)cc3C(=O)N(C(C)C)C(C)C)C4)OC2)cs1` [Example 81, 5-Fluoro-N,N-diisopropyl-2-((4-(7-(((2S,5R)-5-((2-methylthiazole)-4-sulfonamido)tetrahydro-2H-pyran-2-yl)methyl)-2,7-diazaspiro[3.5]nonan-2-yl)pyrimidin-5-yl)oxy)benzamide], the “hERG % Remaining” value in data set [1] (10 μM compound) is “++ (233% and ≤66%)”; in data set [1] (30 μM compound), “++ (233% and ≤66%)”. The IC50 in data set [2] is less than 100 nM. Turning to `CC(C)N(C(=O)c1cc(F)ccc1Oc1cncnc1N1CC2(CCN(C[C@@H]3CC[C@@H](NS(=O)(=O)c4cnn(C)c4Cl)CO3)CC2)C1)C(C)C` [Example 82, 2-((4-(7-(((2S,5R)-5-((5-Chloro-1-methyl-1H-pyrazole)-4-sulfonamido)tetrahydro-2H-pyran-2-yl)methyl)-2,7-diazaspiro[3.5]nonan-2-yl)pyrimidin-5-yl)oxy)-5-fluoro-N,N-diisopropylbenzamide], the “hERG % Remaining” value in data set [1] (10 μM compound) was “++ (233% and ≤66%)”; in data set [1] (30 μM compound), “+ (<33%)”. Also, in data set [2], the IC50 is less than 100 nM. Regarding `CC(C)N(C(=O)c1cc(F)ccc1Oc1cncnc1N1CC2(CCN(C[C@@H]3CC[C@@H](NS(=N)(=O)C4CC4)CO3)CC2)C1)C(C)C` (stereo partly drawn) [Example 233, 2-((4-(7-(((2S,5R)-5-(Cyclopropanesulfonoamidimidamido)tetrahydro-2H-pyran-2-yl)methyl)-2,7-diazaspiro[3.5]nonan-2-yl)pyrimidin-5-yl)oxy)-5-fluoro-N,N-diisopropylbenzamide], the IC50 in data set [2] was less than 100 nM.

For `Cc1ncc(S(=O)(=O)N[C@@H]2CC[C@@H](CN3CCC4(CC3)CN(c3ncncc3Oc3ccc(F)cc3C(=O)N(C(C)C)C(C)C)C4)OC2)[nH]1` [Example 234, 5-Fluoro-N,N-diisopropyl-2-((4-(7-(((2S,5R)-5-((2-methyl-1H-imidazole)-5-sulfonamido)tetrahydro-2H-pyran-2-yl)methyl)-2,7-diazaspiro[3.5]nonan-2-yl)pyrimidin-5-yl)oxy)benzamide], the IC50 in data set [2] is less than 100 nM.

`CC(C)N(CC(F)F)C(=O)c1cc(F)ccc1Oc1cncnc1N1CC2(CCN(C[C@@H]3CC[C@@H](NS(=O)(=O)N4CC(OCc5ccccc5)C4)CO3)CC2)C1` [Example 236, 2-((4-(7-(((2S,5R)-5-((3-(Benzyloxy)azetidine)-1-sulfonamido)tetrahydro-2H-pyran-2-yl)methyl)-2,7-diazaspiro[3.5]nonan-2-yl)pyrimidin-5-yl)oxy)-N-(2,2-difluoroethyl)-5-fluoro-N-isopropylbenzamide]: in data set [2], the IC50 is less than 100 nM. Same read-out and setting: as for `CC(C)N(CC(F)F)C(=O)c1cc(F)ccc1Oc1cncnc1N1CC2(CCN(C[C@@H]3CC[C@@H](NS(=O)(=O)N4CC(O)C4)CO3)CC2)C1` [Example 237, N-(2,2-Difluoroethyl)-5-fluoro-2-((4-(7-(((2S,5R)-5-((3-hydroxyazetidine)-1-sulfonamido)tetrahydro-2H-pyran-2-yl)methyl)-2,7-diazaspiro[3.5]nonan-2-yl)pyrimidin-5-yl)oxy)-N-isopropylbenzamide], the figure is less than 100 nM; as for `CC(C)N(CC(F)F)C(=O)c1cc(F)ccc1Oc1cncnc1N1CC2(CCN(C[C@@H]3CC[C@@H](NS(=O)(=O)N(C)CCOCc4ccccc4)CO3)CC2)C1` [Example 238], less than 100 nM; as for `CCS(=O)(=O)N[C@@H]1CC[C@@H](CN2CCC3(CC2)CN(c2ncncc2Oc2ccc(F)cc2C(=O)N(C(C)C)[C@H]2[C@@H]4COC[C@@H]42)C3)OC1` [Example 253, N-((1R,5S,6r)-3-Oxabicyclo[3.1.0]hexan-6-yl)-2-((4-(7-(((2S,5R)-5-(ethylsulfonamido)tetrahydro-2H-pyran-2-yl)methyl)-2,7-diazaspiro[3.5]nonan-2-yl)pyrimidin-5-yl)oxy)-5-fluoro-N-isopropylbenzamide], 100 to 1000 nM.

As to `CCS(=O)(=O)N[C@@H]1CC[C@@H](CN2CCC3(CC2)CN(c2ncncc2Oc2ccc(F)cc2C(=O)N(C(C)C)[C@H]2C[C@H](O)C2)C3)OC1` [Example 259, 2-((4-(7-(((2S,5R)-5-(Ethylsulfonamido)tetrahydro-2H-pyran-2-yl)methyl)-2,7-diazaspiro[3.5]nonan-2-yl)pyrimidin-5-yl)oxy)-5-fluoro-N-((1r,3r)-3-hydroxycyclobutyl)-N-isopropylbenzamide], the IC50 in data set [2] was less than 100 nM.
